Like-named read-outs stand apart in the source and are kept apart here.
Legend:
[1] = target: GST-MCL-1 (Homo sapiens, UniProt Q07820); test: TR-FRET MCL-1 binding assay (competition with probe F-Bak)
Outline: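 Test compounds, 11 three-fold dilutions from 25 μM final, incubated 2 hours at room temperature with GST-MCL-1, F-Bak probe and Tb-anti-GST antibody. TR-FRET read at 340/35 nm excitation with 520/525 and 495/510 nm emission. Run without human serum and with 10% HS.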

[2] = tested on: AMO-1 human multiple myeloma tumor cell line; test: AMO-1 cell viability assay (CellTiter-Glo, 24 hours); assay type: cell-based
Method: Each concentration was tested in duplicate at least 3 independent times. A luminescent signal proportional to the number of viable cells following 24 hours of compound treatment was determined using the CellTiter-Glo® Luminescent Cell Viability Assay according to the manufacturer's recommendations (Promega Corp., Madison, WI). The plates were read in a Perkin Elmer Envision using a Luminescence protocol. To generate dose response curves the data is normalized to percent viability by setting the averages of the staurosporine (10 μM) and DMSO only control wells to 0% and 100% viability respectively.

[3] = tested on: NCI-H929 human multiple myeloma tumor cell line; test: NCI-H929 cell viability assay (CellTiter-Glo, 24 hours); assay type: cell-based
[4] = MCL-1 Binding Ki (nM, 10% HS), in the presence of 10% HS (human serum)
[5] = without HS, read-out: MCL-1 Binding Ki
[6] = Homo sapiens, AMO1, 24 h, read-out: AMO-1 Viability IC50 (μM, 10% FBS), 10% FBS, 24 hours of compound treatment
[7] = Homo sapiens, NCI-H929, 24 h, read-out: H929 Viability IC50 (μM, 10% FBS), 10% FBS, 24 hours of compound treatment

Chain of GST-MCL-1 (Q07820 whole entry): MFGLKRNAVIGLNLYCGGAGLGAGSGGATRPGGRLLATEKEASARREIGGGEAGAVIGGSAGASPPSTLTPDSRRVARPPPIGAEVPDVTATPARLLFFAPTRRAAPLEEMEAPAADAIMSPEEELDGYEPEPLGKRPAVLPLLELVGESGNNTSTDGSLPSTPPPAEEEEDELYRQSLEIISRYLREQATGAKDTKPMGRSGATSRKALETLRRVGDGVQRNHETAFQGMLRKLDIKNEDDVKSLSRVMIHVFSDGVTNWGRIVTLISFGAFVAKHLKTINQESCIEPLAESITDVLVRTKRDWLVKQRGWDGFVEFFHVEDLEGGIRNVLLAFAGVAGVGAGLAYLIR

SMILES	Ki [1, 4] [nM]	Ki [1, 5] [nM]	IC50 [2, 6] [µM]	IC50 [3, 7] [µM]	IC50 ([2]; read-out: AMO-1 Viability IC50 (μM, 10% FBS), 10% FBS, 24 hours of compound treatment) [µM]	IC50 ([3]; read-out: H929 Viability IC50 (μM, 10% FBS), 10% FBS, 24 hours of compound treatment) [µM]
COCCOCCOCCOCCOC[C@H]1CCCC[C@@H]1c1nccc(COc2ccc3cc2C[C@H](C(=O)O)Oc2ncnc4sc(-c5ccc(F)cc5)c(c24)-c2c(C)c(Cl)c(c(Cl)c2C)O[C@H](CN2CCN(C)CC2)CO3)n1 (relative stereo) [Example 124, (7R,16R)-19,23-dichloro-1-(4-fluorophenyl)-20,22-dimethyl-16-[(4-methylpiperazin-1-yl)methyl]-10-({2-[(1S*,2S*)-2-(2,5,8,11,14-pentaoxapentadecan-1-yl)cyclohexyl]pyrimidin-4-yl}methoxy)-7,8,15,16-tetrahydro-18,21-etheno-13,9-(metheno)-6,14,17-trioxa-2-thia-3,5-diazacyclononadeca[1,2,3-cd]indene-7-carboxylic Acid]	0.145	0.012	0.000355	0.000818	–	–
COCCOCCOCCOc1cccc(COc2ccc3cc2C[C@H](C(=O)O)Oc2ncnc4sc(-c5ccc(F)cc5)c(c24)-c2c(C)c(Cl)c(c(Cl)c2C)O[C@H](CN2CCN(C)CC2)CO3)c1 [Example 156, (7R,16R)-19,23-dichloro-1-(4-fluorophenyl)-10-[(3-{2-[2-(2-methoxyethoxy)ethoxy]ethoxy}phenyl)methoxy]-20,22-dimethyl-16-[(4-methylpiperazin-1-yl)methyl]-7,8,15,16-tetrahydro-18,21-etheno-13,9-(metheno)-6,14,17-trioxa-2-thia-3,5-diazacyclononadeca[1,2,3-cd]indene-7-carboxylic Acid]	23.6	1.88	0.00453	0.0111	–	–
Cc1c(Cl)c2c(Cl)c(C)c1-c1c(-c3ccc(F)cc3)sc3ncnc(c13)O[C@@H](C(=O)O)Cc1cc(ccc1OCc1ccnc(C3=CCC(CC(=O)O)CC3)n1)OC[C@@H](CN1CCN(C)CC1)O2 (single isomer, unassigned) [Example 37, (7R,16R)-10-({2-[(4R*)-4-(carboxymethyl)cyclohex-1-en-1-yl]pyrimidin-4-yl}methoxy)-19,23-dichloro-1-(4-fluorophenyl)-20,22-dimethyl-16-[(4-methylpiperazin-1-yl)methyl]-7,8,15,16-tetrahydro-18,21-etheno-13,9-(metheno)-6,14,17-trioxa-2-thia-3,5-diazacyclononadeca[1,2,3-cd]indene-7-carboxylic Acid]	0.124	0.009	–	–	0.0096	0.0167
COCCOCCN(CCOCCOC)c1nccc(COc2ccc3cc2C[C@H](C(=O)O)Oc2ncnc4sc(-c5ccc(F)cc5)c(c24)-c2c(C)c(Cl)c(c(Cl)c2C)O[C@H](CN2CCN(C)CC2)CO3)n1 [Example 108, (7R,16R)-10-[(2-{bis[2-(2-methoxyethoxy)ethyl]amino}pyrimidin-4-yl)methoxy]-19,23-dichloro-1-(4-fluorophenyl)-20,22-dimethyl-16-[(4-methylpiperazin-1-yl)methyl]-7,8,15,16-tetrahydro-18,21-etheno-13,9-(metheno)-6,14,17-trioxa-2-thia-3,5-diazacyclononadeca[1,2,3-cd]indene-7-carboxylic Acid]	6.62	1.08	0.00343	0.00417	–	–
COCCOCCOCCO[C@H]1CC[C@@H](c2nccc(COc3ccc4cc3C[C@H](C(=O)O)Oc3ncnc5sc(-c6ccc(F)cc6)c(c35)-c3c(C)c(Cl)c(c(Cl)c3C)O[C@H](CN3CCN(C)CC3)CO4)n2)CC1 [Example 70, (7R,16R)-19,23-dichloro-1-(4-fluorophenyl)-10-({2-[(1s,4s)-4-{2-[2-(2-methoxyethoxy)ethoxy]ethoxy}cyclohexyl]pyrimidin-4-yl}methoxy)-20,22-dimethyl-16-[(4-methylpiperazin-1-yl)methyl]-7,8,15,16-tetrahydro-18,21-etheno-13,9-(metheno)-6,14,17-trioxa-2-thia-3,5-diazacyclononadeca[1,2,3-cd]indene-7-carboxylic Acid]	0.083	0.012	0.000263	0.000489	–	–
COCCOCCOCCOC[C@]1(F)CC[C@@H](c2nccc(COc3ccc4cc3C[C@H](C(=O)O)Oc3ncnc5sc(-c6ccc(F)cc6)c(c35)-c3c(C)c(Cl)c(c(Cl)c3C)O[C@H](CN3CCN(C)CC3)CO4)n2)CC1 [Example 118, (7R,16R)-19,23-dichloro-1-(4-fluorophenyl)-10-({2-[(1s,4s)-4-fluoro-4-(2,5,8,11-tetraoxadodecan-1-yl)cyclohexyl]pyrimidin-4-yl}methoxy)-20,22-dimethyl-16-[(4-methylpiperazin-1-yl)methyl]-7,8,15,16-tetrahydro-18,21-etheno-13,9-(metheno)-6,14,17-trioxa-2-thia-3,5-diazacyclononadeca[1,2,3-cd]indene-7-carboxylic Acid]	27.3	1.99	0.000247	0.000396	–	–
Cc1c(Cl)c2c(Cl)c(C)c1-c1c(-c3ccc(F)cc3)sc3ncnc(c13)O[C@@H](C(=O)O)Cc1cc(ccc1OCc1ccnc(C3CCS(=O)(=O)C3)n1)OC[C@@H](CN1CCN(C)CC1)O2 (stereo partly drawn) [Example 73, (7R,16R)-19,23-dichloro-10-{[2-(1,1-dioxo-1λ^6-thiolan-3-yl)pyrimidin-4-yl]methoxy}-1-(4-fluorophenyl)-20,22-dimethyl-16-[(4-methylpiperazin-1-yl)methyl]-7,8,15,16-tetrahydro-18,21-etheno-9,13-(metheno)-6,14,17-trioxa-2-thia-3,5-diazacyclononadeca[1,2,3-cd]indene-7-carboxylic Acid]	0.208	0.037	0.00262	0.00556	–	–
CO[C@H]1O[C@H](COc2cccc(-c3nccc(COc4ccc5cc4C[C@H](C(=O)O)Oc4ncnc6sc(-c7ccc(F)cc7)c(c46)-c4ccc(c(Cl)c4C)O[C@H](CN4CCN(C)CC4)CO5)n3)c2)[C@@H](OC)[C@H](OC)[C@@H]1OC [Example 7, methyl 6-O-{3-[4-({[(7R,16R,21S)-7-carboxy-19-chloro-1-(4-fluorophenyl)-20-methyl-16-[(4-methylpiperazin-1-yl)methyl]-7,8,15,16-tetrahydro-18,21-etheno-13,9-(metheno)-6,14,17-trioxa-2-thia-3,5-diazacyclononadeca[1,2,3-cd]inden-10-yl]oxy}methyl)pyrimidin-2-yl]phenyl}-2,3,4-tri-O-methyl-a-D-mannopyranoside]	0.599	0.054	0.007	0.011	–	–
COCCOCCOCCO[C@H]1CC[C@H](c2nccc(COc3ccc4cc3C[C@H](C(=O)O)Oc3ncnc5sc(C6CCC6)c(c35)-c3c(C)c(Cl)c(c(Cl)c3C)O[C@H](CN3CCN(C)CC3)CO4)n2)CC1 [Example 131, (7R,16R)-19,23-dichloro-1-cyclobutyl-10-({2-[(1r,4r)-4-{2-[2-(2-methoxyethoxy)ethoxy]ethoxy}cyclohexyl]pyrimidin-4-yl}methoxy)-20,22-dimethyl-16-[(4-methylpiperazin-1-yl)methyl]-7,8,15,16-tetrahydro-18,21-etheno-13,9-(metheno)-6,14,17-trioxa-2-thia-3,5-diazacyclononadeca[1,2,3-cd]indene-7-carboxylic Acid]	1.14	0.024	0.000367	0.000585	–	–
COCCOCCOCCOc1ccc(-c2nccc(COc3ccc4cc3C[C@H](C(=O)O)Oc3ncnc5sc(-c6ccc(F)cc6)c(c35)-c3c(C)c(Cl)c(c(Cl)c3C)O[C@H](CN3CCN(C)CC3)CO4)n2)cn1 [Example 46, (7R,16R)-19,23-dichloro-1-(4-fluorophenyl)-10-{[2-(6-{2-[2-(2-methoxyethoxy)ethoxy]ethoxy}pyridin-3-yl)pyrimidin-4-yl]methoxy}-20,22-dimethyl-16-[(4-methylpiperazin-1-yl)methyl]-7,8,15,16-tetrahydro-18,21-etheno-13,9-(metheno)-6,14,17-trioxa-2-thia-3,5-diazacyclononadeca[1,2,3-cd]indene-7-carboxylic Acid]	1.08	1.02	0.00027	0.000388	–	–
CO[C@H]1O[C@H](COc2ccc(-c3nccc(COc4ccc5cc4C[C@H](C(=O)O)Oc4ncnc6sc(-c7ccc(F)cc7)c(c46)-c4ccc(c(Cl)c4C)CN(CCN4CCN(C)CC4)C5)n3)cc2)[C@@H](O)[C@H](O)[C@H]1O [Example 9, methyl 6-O-{4-[4-({[(7R,20S)-7-carboxy-18-chloro-1-(4-fluorophenyl)-19-methyl-15-[2-(4-methylpiperazin-1-yl)ethyl]-7,8,15,16-tetrahydro-14H-17,20-etheno-13,9-(metheno)-6-oxa-2-thia-3,5,15-triazacyclooctadeca[1,2,3-cd]inden-10-yl]oxy}methyl)pyrimidin-2-yl]phenyl}-a-D-glucopyranoside]	0.296	0.048	0.732	> 1	–	–

Reference: US20250313572A1, “MACROCYCLIC MCL-1 INHIBITORS AND METHODS OF USE” (AbbVie Inc., priority 2017, published 2025)
